Measured values: BindingDB's records for doi:10.1021/jm960793t (Suntory, 1997)

How the values were obtained:
[1] = target: T1, Cathepsin G (Homo sapiens, UniProt P08311); experiment: Inhibitory activity against human neutrophil cathepsin G.
T1 sequence (P08311 whole entry): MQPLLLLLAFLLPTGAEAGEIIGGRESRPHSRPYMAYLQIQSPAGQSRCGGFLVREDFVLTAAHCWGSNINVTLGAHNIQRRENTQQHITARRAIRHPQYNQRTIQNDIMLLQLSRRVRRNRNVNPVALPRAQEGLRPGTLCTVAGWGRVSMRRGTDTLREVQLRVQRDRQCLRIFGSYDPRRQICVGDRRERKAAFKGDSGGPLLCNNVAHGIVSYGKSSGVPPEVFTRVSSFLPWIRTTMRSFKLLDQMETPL

[2] = target: T2, Chymase (Homo sapiens, UniProt P23946); experiment: Inhibitory activity against human heart chymase in vitro.
T2 sequence (P23946 whole entry): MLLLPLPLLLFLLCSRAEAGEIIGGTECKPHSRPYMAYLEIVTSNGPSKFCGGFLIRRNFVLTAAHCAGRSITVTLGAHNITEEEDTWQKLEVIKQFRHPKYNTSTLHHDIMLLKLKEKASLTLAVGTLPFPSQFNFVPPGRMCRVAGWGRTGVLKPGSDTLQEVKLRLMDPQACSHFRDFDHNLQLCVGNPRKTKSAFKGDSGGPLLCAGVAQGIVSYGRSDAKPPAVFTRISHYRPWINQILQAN

| Compound | IC50 [1] [µM] | IC50 [2] [µM] |
| --- | --- | --- |
| O=C(OCn1c(O)cn(-c2ccccc2)c1=O)c1ccccc1 [Benzoic acid 2,5-dioxo-3-phenyl-imidazolidin-1-ylmethyl ester] | > 100 | > 100 |
| O=c1n(S(=O)(=O)c2ccc(Cl)cc2)cc(O)n1-c1ccc(Cl)cc1 [1-(4-Chloro-benzenesulfonyl)-3-(4-chloro-phenyl)-imidazolidine-2,4-dione] |  | > 100 |
